From US9914730B2, “Azaquinazoline inhibitors of Atypical protein Kinase C” (Ignyta, Inc., priority 2012, dated 2018)
pIC50: −log10 of the molar value.

Molecular target: T1, full-length human PKCι (Homo sapiens, UniProt P41743)
T1 construct: Recombinant, full-length human PKCι expressed in Sf21 insect cells is also commercially available; purchased; host or cells: Sf21 insect cells
T1 sequence (P41743 1-596): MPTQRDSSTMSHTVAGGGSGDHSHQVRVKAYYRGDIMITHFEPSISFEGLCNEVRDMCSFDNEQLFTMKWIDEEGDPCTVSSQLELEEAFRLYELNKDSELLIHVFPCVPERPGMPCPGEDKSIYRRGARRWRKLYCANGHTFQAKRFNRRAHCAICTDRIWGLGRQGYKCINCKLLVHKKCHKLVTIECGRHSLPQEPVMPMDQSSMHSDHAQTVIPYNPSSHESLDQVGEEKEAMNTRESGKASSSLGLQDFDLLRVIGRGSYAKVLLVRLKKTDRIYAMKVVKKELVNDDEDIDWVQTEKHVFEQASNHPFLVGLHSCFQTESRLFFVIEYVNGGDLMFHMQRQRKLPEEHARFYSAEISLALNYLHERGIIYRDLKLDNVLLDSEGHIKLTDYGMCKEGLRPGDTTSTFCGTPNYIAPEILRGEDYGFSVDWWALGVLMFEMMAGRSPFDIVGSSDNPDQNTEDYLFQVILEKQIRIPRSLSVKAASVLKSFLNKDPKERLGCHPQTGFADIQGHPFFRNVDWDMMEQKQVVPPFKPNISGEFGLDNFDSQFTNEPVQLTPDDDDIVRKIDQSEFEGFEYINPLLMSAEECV
Assay: PKCι IC50 IMAP assay, full-length PKCι at 150 μM ATP
Assay type: biochemical
Settings: read-out: IC50 in IMAP assay against full length PKCi at 150 μM ATP
Method in brief: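 Full-length human PKCι from Sf21 cells, typically 15 pM, with 100 nM 5FAM-PKCε pseudosubstrate peptide and 150 μM ATP (5× apparent KM), 60 min at room temperature, 4% DMSO. IMAP fluorescence polarisation read-out; inhibition normalised to no-compound and no-enzyme controls, IC50 from curve fit.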

SMILES	pIC50
CC(C)N1CCC(N(C)c2nc(-c3ccnc(Nc4c(F)cccc4F)c3)nc3cncc(C4CC4)c23)CC1 [Example 2115, {5-Cyclopropyl-2-[2-(2,6-difluoro-phenylamino)-pyridin-4-yl]-pyrido[3,4-d]pyrimidin-4-yl}-(1-isopropyl-piperidin-4-yl)-methyl-amine]	> 7.00
CCc1ccc(F)c(Nc2cc(-c3nc(N4CCNCC4)c4c(C5CC5)cncc4n3)ccn2)c1 [Example 715, [4-(5-Cyclopropyl-4-piperazin-1-yl-pyrido[3,4-d]pyrimidin-2-yl)-pyridin-2-yl]-(5-ethyl-2-fluoro-phenyl)-amine]	> 7.00
Cn1c(C(F)(F)F)cc2c(-c3nc(N[C@@H]4CCNC4)c4c(C5CC5)cncc4n3)ccnc21 [Example 2077, [5-Cyclopropyl-2-(1-methyl-2-trifluoromethyl-1H-pyrrolo[2,3-b]pyridin-4-yl)-pyrido[3,4-d]pyrimidin-4-yl]-(R)-pyrrolidin-3-yl-amine]	4.40 to 5.00
C=Cc1cncc2nc(-c3ccnc(Nc4c(F)cccc4F)c3)nc(N3CCNCC3)c12 [Example 2094, (2,6-Difluoro-phenyl)-[4-(4-piperazin-1-yl-5-vinyl-pyrido[3,4-d]pyrimidin-2-yl)-pyridin-2-yl]-amine]	> 7.00
CC(F)(F)C1CN(c2nc(-c3ccnc(Nc4ccccc4)c3)nc3cncc(C4CC4)c23)CCN1 (stereo not drawn) [Example 278, (4-{5-Cyclopropyl-4-[3-(1,1-difluoro-ethyl)-piperazin-1-yl]-pyrido[3,4-d]pyrimidin-2-yl}-pyridin-2-yl)-phenyl-amine]	4.40 to 5.00
NC(=O)c1ccc(Nc2cc(-c3nc(N[C@@H]4CCNC4)c4ccncc4n3)ccn2)cc1 [Example 304, 4-{4-[4-((R)-Pyrrolidin-3-ylamino)-pyrido[3,4-d]pyrimidin-2-yl]-pyridin-2-ylamino}-benzamide]	6.00 to 7.00
COCc1ccccc1Nc1cc(-c2nc(N3CCNCC3)c3c(C4CC4)cncc3n2)ccn1 [Example 517, [4-(5-Cyclopropyl-4-piperazin-1-yl-pyrido[3,4-d]pyrimidin-2-yl)-pyridin-2-yl]-(2-methoxymethyl-phenyl)-amine]	6.00 to 7.00
CN(C)CCNc1nc(-c2ccnc(Nc3c(F)cccc3F)c2)nc2cncc(C3CC3)c12 [Example 776, N-{5-Cyclopropyl-2-[2-(2,6-difluoro-phenylamino)-pyridin-4-yl]-pyrido[3,4-d]pyrimidin-4-yl}-N′,N′-dimethyl-ethane-1,2-diamine]	6.00 to 7.00
N[C@H](CNc1nc(-c2ccncc2)nc2c(-c3cncnc3)nccc12)Cc1ccccc1 [Example 108, N-[(2S)-2-amino-3-phenylpropyl]-2-(pyridin-4-yl)-8-(pyrimidin-5-yl)pyrido[3,4-d]pyrimidin-4-amine]	6.00 to 7.00
CCc1cc2c(-c3nc(N4CCNCC4)c4c(OC)cncc4n3)ccnc2[nH]1 [Example 1204, 2-(2-Ethyl-1H-pyrrolo[2,3-b]pyridin-4-yl)-5methoxy-4-piperazin-1-yl-pyrido[3,4-d]pyrimidine]	6.00 to 7.00
FC1CCC(Nc2cc(-c3nc(N4CCNCC4)c4c(C5CC5)cncc4n3)ccn2)CC1 (stereo not drawn) [Example 601, [4-(5-Cyclopropyl-4-piperazin-1-yl-pyrido[3,4-d]pyrimidin-2-yl)-pyridin-2-yl]-(4-fluorocyclohexyl)-amine]	> 7.00
c1cc(-c2nc(N3CCNCC3)c3c(C4CC4)cncc3n2)cc(N[C@H]2C[C@@H]3CC[C@H]2C3)n1 [Example 823, (1S,2S,4R)-Bicyclo[2.2.1]hept-2-yl-[4-(5-cyclopropyl-4-piperazin-1-yl-pyrido[3,4-d]pyrimidin-2-yl)-pyridin-2-yl]-amine]	> 7.00
Fc1ccc2c([nH]c3nccc(-c4nc(N5CCNCC5)c5c(C6CC6)cncc5n4)c32)c1F [Example 2036, 4-(5-Cyclopropyl-4-piperazin-1-yl-pyrido[3,4-d]pyrimidin-2-yl)-7,8-difluoro-9H-pyrido[2,3-b]indole]	> 7.00
CCNC(=O)N[C@H](CNc1nc(-c2ccncc2)nc2cnccc12)Cc1ccccc1 [Example 85, 3-ethyl-1-(1-phenyl-3-{[2-(pyridin-4-yl)pyrido[3,4-d]pyrimidin-4-yl]amino}propan-2-yl)urea]	4.40 to 5.00
O=C(O)c1ccc(Nc2cc(-c3nc(N4CCNCC4)c4c(C5CC5)cncc4n3)ccn2)cc1 [Example 684, 4-[4-(5-Cyclopropyl-4-piperazin-1-yl-pyrido[3,4-d]pyrimidin-2-yl)-pyridin-2-ylamino]-benzoic acid]	6.00 to 7.00
COc1cncc2nc(-c3ccnc(NC(=O)Cc4cccc(C(F)(F)F)c4)c3)nc(N3CCNCC3)c12 [Example 373, N-[4-(5-Methoxy-4-piperazin-1-yl-pyrido[3,4-d]pyrimidin-2-yl)-pyridin-2-yl]-2-(3-trifluoromethyl-phenyl)-acetamide]	> 7.00
Nc1cccc(CC(=O)Nc2cc(-c3nc(N[C@@H]4CCNC4)c4ccncc4n3)ccn2)c1 [Example 317, 2-(3-Amino-phenyl)-N-{4-[4-((R)-pyrrolidin-3-ylamino)-pyrido[3,4-d]pyrimidin-2-yl]-pyridin-2-yl}-acetamide]	6.00 to 7.00
c1cc(-c2nc(N3CCNCC3)c3c(C4CC4)cncc3n2)cc(N[C@@H]2C[C@H]3CC[C@@H]2C3)n1 (racemic) [Example 695, (+/−)-(1RS,2RS,4SR)-Bicyclo[2.2.1]hept-2-yl-[4-(5-cyclopropyl-4-piperazin-1-yl-pyrido[3,4-d]pyrimidin-2-yl)-pyridin-2-yl]-amine]	> 7.00
N#Cc1ccnc(Nc2cc(-c3nc(N4CCNCC4)c4c(C5CC5)cncc4n3)ccn2)c1 [Example 265, 2-[4-(5-Cyclopropyl-4-piperazin-1-yl-pyrido[3,4-d]pyrimidin-2-yl)-pyridin-2-ylamino]-isonicotinonitrile]	> 7.00
CNC(=O)c1ccc(Nc2cc(-c3nc(N4CCNCC4)c4c(C5CC5)cncc4n3)ccn2)cc1 [Example 841, -[4-(5-Cyclopropyl-4-piperazin-1-yl-pyrido[3,4-d]pyrimidin-2-yl)-pyridin-2-ylamino]-N-methyl-benzamide]	> 7.00
COc1cncc2nc(-c3ccnc(Nc4ccccc4)c3)nc(N3CCC(O)CC3)c12 [Example 427, 1-[5-Methoxy-2-(2-phenylamino-pyridin-4-yl)-pyrido[3,4-d]pyrimidin-4-yl]-piperidin-4-ol]	5.00 to 6.00
c1ccc2c(c1)CC[C@H]2Nc1cc(-c2nc(N3CCNCC3)c3c(C4CC4)cncc3n2)ccn1 [Example 2098, [4-(5-Cyclopropyl-4-piperazin-1-yl-pyrido[3,4-d]pyrimidin-2-yl)-pyridin-2-yl]-(R)-indan-1-yl-amine]	> 7.00
FC(F)(F)[C@@H]1CN(c2nc(-c3ccnc4[nH]ccc34)nc3cncc(C4CC4)c23)CCN1 [Example 1214, 5-Cyclopropyl-2-(1H-pyrrolo[2,3-b]pyridin-4-yl)-4-((S)-3-trifluoromethyl-piperazin-1-yl)-pyrido[3,4-d]pyrimidine]	> 7.00
CN1CCN(c2cccc(Nc3cc(-c4nc(N5CCC5)c5c(C6CC6)cncc5n4)ccn3)c2)CC1 [Example 761, [4-(4-Azetidin-1-yl-5-cyclopropyl-pyrido[3,4-d]pyrimidin-2-yl)-pyridin-2-yl]-[3-(4-methyl-piperazin-1-yl)-phenyl]-amine]	6.00 to 7.00
